Assay: Common metabolites in rat plasma by GC-MS/MS after polyI:C and/or maoto
Format: in vivo
Method: Distilled water and saline were administered as vehicle to rats in each control group. […] Plasma cytokine levels were measured by ELISA or multiplex immunoassay; common metabolites and lipid mediators were analyzed by GC-MS/MS and LC-MS/MS, respectively.
1 The concentrations of TNF-α and IL-6 in plasma samples were evaluated by
2 ELISA (R&D Systems, Minneapolis, MN, USA). Multiplex immunoassays
3 (Milliplex, Merck KGaA, Darmstadt, Germany) were performed to quantify the
4 concentrations of IL-1β, IL-10 and INF-γ. Assays were performed according to
5 the manufacturer’s protocol.
If any outliers in the data set were determined to
10 be due to artifacts, they were excluded from the analysis. Data are presented as
11 mean ± SEM. Statistical significance of the data was determined by Welch’s
12 t-test with Bonferroni correction. The significance level in each statistical
13 analysis was set at P<0.05.
14 Analysis of metabolites by GC-MS/MS
15 Plasma samples obtained at 1, 2, 6 and 20 h after treatment were used for
16 analysis. To extract low molecular weight metabolites for GC-MS/MS analysis, […]

[1] = PM/P (polyI:C+maoto vs polyI:C), 1h
[2] = PM/P (polyI:C+maoto vs polyI:C), 2h
[3] = PM/P (polyI:C+maoto vs polyI:C), 6h
[4] = PM/P (polyI:C+maoto vs polyI:C), 20h

| SMILES | log2FC of plasma level (M/C (maoto vs control), 1h) | log2FC of plasma level (M/C (maoto vs control), 2h) | log2FC of plasma level (M/C (maoto vs control), 6h) | log2FC of plasma level (M/C (maoto vs control), 20h) | log2FC of plasma level (P/C (polyI:C vs control), 1h) | log2FC of plasma level (P/C (polyI:C vs control), 2h) | log2FC of plasma level (P/C (polyI:C vs control), 6h) | log2FC of plasma level (P/C (polyI:C vs control), 20h) | log2FC of plasma level [1] | log2FC of plasma level [2] | log2FC of plasma level [3] | log2FC of plasma level [4] |
| --- | --- | --- | --- | --- | --- | --- | --- | --- | --- | --- | --- | --- |
| NCC(=O)O [Glycine] | -0.06 | -0.10 | -0.14 | -0.06 | -0.03 | -0.01 | -0.02 | -0.30 | -0.12 | -0.42 | -0.02 | 0.0873 |
| O=C(O)Cc1cc(O)ccc1O [Homogentisic acid] | 0.60 | -0.05 | 0.23 | 0.79 | -0.05 | 0.24 | 0.10 | 0.75 | 0.68 | -0.76 | -0.18 | 0.0612 |
| O=C[C@H](O)[C@H](O)[C@H](O)CO [Ribose] | 0.41 | 0.05 | -0.22 | 0.16 | 1.05 | 0.63 | -0.22 | -0.34 | -1.38 | -0.72 | -0.21 | 0.2160 |
| O=C(CO)C(O)C(O)CO (stereo not drawn) [Ribulose] | 0.30 | 0.01 | 0.06 | 0.08 | 0.24 | 0.14 | 0.10 | -0.04 | -0.26 | -0.26 | 0.02 | 0.0374 |
| NC(N)=O [Urea] | 0.05 | -0.01 | -0.09 | -0.07 | -0.01 | 0.02 | -0.05 | 0.03 | -0.02 | -0.03 | -0.13 | 0.0096 |

Reference: PMC5654968 (NPJ Systems Biology and Applications, 2017)
